# Article PMC12292521, “Discovery of a Potent Antimicrobial Peptide Through Rational Design: A New Frontier in Pathogen Control” (Biomolecules, 2025)
# Peptide text beside a SMILES is read from it.
# Experiments:
# [1] = tested on: Campylobacter jejuni; type: cell-based; conditions: 6 h
# Description: (§1) To assess the antimicrobial potential of the designed peptide, different strains of Gram-negative and Gram-positive bacteria were evaluated. Pseudomonas aeruginosa was an ATCC (27853) strain, while Escherichia coli, Listeria monocytogenes, Staphylococcus aureus, Campylobacter jejuni, Salmonella Typhimurium, the monophasic variant of Salmonella Typhimurium and Salmonella Napoli were isolated from food products by the Laboratory of Microbiological Food Control—Department of Food Microbiology of the Istituto Zooprofilattico Sperimentale del Mezzogiorno (IZSM) in Portici (Naples, Italy).
# (§2) In accordance with the Clinical & Laboratory Standards Institute guidelines (CLSI, 2015), the Minimum Bactericidal Concentration (MBC), defined as the minimum concentration of peptide required to kill 99.9% of the tested bacterial suspension within a defined time interval, was determined. L. monocytogenes, E. coli, S. aureus, S. Typhimurium, monophasic variant of S. Typhimurium, S. Napoli, and P. aeruginosa were cultured at 37 °C in buffered peptone water (Thermo Fisher, Milan, Italy), while C. jejuni was cultured in Bolton Broth (Oxoid, Madrid, Spain). The bacterial suspension was collected and then diluted in fresh broth to a final concentration of 1.0 × 10^3 or 1.0 × 10^5 colony-forming units (CFUs)/mL. […] Samples containing only cell suspension and DMSO were used as controls. […]
# [2] = tested on: Salmonella Napoli; type: cell-based; conditions: 6 h
# Description: as §1, §2
# [3] = Conformational stability by CD and fluorescence spectroscopy in SDS; type: physicochemical
# Description: The secondary structure elements of the antimicrobial molecule were analyzed in a 0.1 cm optical path-length quartz cuvette (Hellma Analytics, Milan, Italy) using Jasco J-810 Circular Dichroism Spectropolarimeter (JASCO, Tokyo, Japan). All spectra were recorded at 25 °C in a wavelength range of 190–250 nm with a 1 nm bandwidth, a scanning speed of 20 nm/min, and averaged over five scans. The spectra as a function of SDS concentration (3, 50, and 150 mM) were obtained at 50 μM final concentration of peptide in 10 mM Tris-HCl buffer, pH 7.0. The folding kinetic analysis of the peptide was carried out after the addition of SDS (50 mM) to the sample (50 μM in 10 mM Tris-HCl, pH 7.0), up to 24 h incubation. […] Next, 50 mM of SDS was added to each sample, which was analyzed by CD spectroscopy after 48 h of incubation at 25 °C. […] All CD spectra of RKW were corrected by subtracting a blank spectrum of a sample containing all components except the peptide (baseline correction). The mean residue ellipticity ([θ], deg. cm^2 dmol^−1) was obtained by the equation [θ] = 100 θ/cnl, where θ is the ellipticity (mdeg), c is the peptide concentration (mM), n is the number of residues, and l is the path length (cm).
# Fluorescence experiments were conducted in a Shimadzu RF-6000 spectrofluorometer (Kyoto, Japan). The analyses were performed by setting an excitation and emission slit width of 5 nm and using a quartz cell with a path length of 1 cm. The intrinsic tryptophan residues were excited at a wavelength of 280 nm, following the emission between 300 and 400 nm. The effects of SDS on the peptide folding, the folding kinetics, and the thermal and the pH stability were monitored as described in Section 2.2.
compound,measurement,setting,value
CC[C@H](C)[C@H](NC(=O)[C@H](Cc1c[nH]c2ccccc12)NC(=O)[C@H](CCCCN)NC(=O)[C@@H](N)CCCNC(=N)N)C(=O)N[C@@H](CC(C)C)C(=O)N[C@@H](CCCCN)C(=O)N[C@@H](Cc1c[nH]c2ccccc12)C(=O)N[C@@H](CC(C)C)C(=O)N[C@@H](CCCNC(=N)N)C(=O)N[C@H](C(=O)N[C@@H](Cc1c[nH]c2ccccc12)C(=O)N[C@@H](CCCCN)C(=O)N[C@@H](CCCCN)C(N)=O)[C@@H](C)O [RKW] (H-RKWILKWLRTWKK-NH2; N-terminus assumed),MBC,[1],80 µM
same,MBC,[2],20 µM
same,α-helical conformation over time in SDS,"[3]; 50 μM peptide, 10 mM Tris-HCl pH 7.0, 50 mM SDS, 25 °C, up to 24 h, CD and fluorescence",did not markedly change its α-helical conformation
same,Helical content at extreme acidic pH,"[3]; 50 μM peptide, 10 mM glycine-HCl pH 2.0, 50 mM SDS, 48 h at 25 °C, CD",entirely disordered
same,Structural and folding stability in SDS micellar solution under other pH and temperature conditions,"[3]; 50 μM peptide, 50 mM SDS, pH 7.0 and 11.0 at 25 °C, 4, 37 and 90 °C at pH 7.0, 48 h, CD and fluorescence",not markedly affected
same,Time the α-helical conformation remains stable in a wide range of pH and temperature,"[3]; membrane-like environment (SDS), abstract",at least 48 h
